From ChEMBL document CHEMBL1201862, “PubChem BioAssay data set” (2004)
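Dose response: 5 concentrations. Exposure: 48 h. Format: 96-well plates. Endpoint: linear interpolation; highest concentration if not reached. GI50 is the concentration that inhibits growth by half.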 Active and inactive are the calls of the source. Cut-off read from the data, not from the text of the source: active = GI50 up to about 1.1 µM and inactive = higher.

How the values were obtained:
Experiment in all cases: growth of human tumour cells (NCI), 48 h
IGROV-1 = tested on: IGROV-1
HCT-116 = tested on: HCT-116
MCF7 = tested on: MCF7
CCRF-CEM = tested on: CCRF-CEM
SK-MEL-2 = tested on: SK-MEL-2
SW-620 = tested on: SW-620
ACHN = tested on: ACHN
PC-3 = tested on: PC-3
HOP-62 = tested on: HOP-62
UO-31 = tested on: UO-31
MOLT-4 = tested on: MOLT-4
MDA-MB-435 = tested on: MDA-MB-435
T47D = tested on: T47D
SF-539 = tested on: SF-539
786-0 = tested on: 786-0
MDA-MB-231 = tested on: MDA-MB-231
SF-295 = tested on: SF-295
A549 = tested on: A549
OVCAR-8 = tested on: OVCAR-8
NCI/ADR-RES = tested on: NCI/ADR-RES

Row | SMILES | GI50 (IGROV-1) | GI50 (HCT-116) | GI50 (MCF7) | GI50 (CCRF-CEM) | GI50 (SK-MEL-2) | GI50 (SW-620) | GI50 (ACHN) | GI50 (PC-3) | GI50 (HOP-62) | GI50 (UO-31) | GI50 (MOLT-4) | GI50 (MDA-MB-435) | GI50 (T47D) | GI50 (SF-539) | GI50 (786-0) | GI50 (MDA-MB-231) | GI50 (SF-295) | GI50 (A549) | GI50 (OVCAR-8) | GI50 (NCI/ADR-RES)
1 | O=C1c2cc3c(cc2CC12Cc1ccccc1C2)CCC3 | 38.2 µM (inactive) | 22.2 µM (inactive) | 18.8 µM (inactive) | 30.5 µM (inactive) | 23.5 µM (inactive) | 45.8 µM (inactive) | 27.8 µM (inactive) | 34 µM (inactive) | 27.8 µM (inactive) | 26.2 µM (inactive) | 19.9 µM (inactive) | 28.2 µM (inactive) | 45.9 µM (inactive) | 31.4 µM (inactive) | 21.1 µM (inactive) | 23.6 µM (inactive) | 46.5 µM (inactive) | 44.4 µM (inactive) | 21.2 µM (inactive) | 28.4 µM (inactive)
2 | O=C1c2cccnc2C(=O)c2c1nc1ccccc1c2-c1ccc2c3c(nc4ccccc42)C(=O)c2cccnc2-c13 | 0.0728 µM (active) | 0.459 µM (active) | 2.07 µM (inactive) | 2.07 µM (inactive) | 2.1 µM (inactive) | 0.268 µM (active) | 0.383 µM (active) | 1.44 µM (inactive) | 1.17 µM (inactive) | 1.24 µM (inactive) | 0.638 µM (active) | 1.87 µM (inactive) | 4.58 µM (inactive) | 0.832 µM (active) | 0.417 µM (active) | 2.21 µM (inactive) | 2.56 µM (inactive) | 2.17 µM (inactive) | 0.37 µM (active) | 1.45 µM (inactive)
3 | O=C(OC12CC3CC(CC(C3)C1)C2)c1ccc(NCc2cc(O)ccc2O)cc1 | 0.109 µM (active) | 1.17 µM (inactive) | 0.48 µM (active) | 0.0383 µM (active) | 1.35 µM (inactive) | 1.67 µM (inactive) | 0.968 µM (active) | 0.667 µM (active) | 4.52 µM (inactive) | 0.417 µM (active) | 0.0944 µM (active) | 1.27 µM (inactive) | 0.262 µM (active) | 0.467 µM (active) | 1.15 µM (inactive) | 1.98 µM (inactive) | 2.29 µM (inactive) | 3.97 µM (inactive) | 1.1 µM (active) | 0.637 µM (active)
4 | O=S(=O)(O)c1ccc(NN(c2c(O)ccc3ccccc23)S(=O)(=O)O)cc1 | > 100 µM (inactive) | > 100 µM (inactive) | > 100 µM (inactive) | > 100 µM (inactive) | > 100 µM (inactive) | > 100 µM (inactive) | > 100 µM (inactive) | > 100 µM (inactive) | > 100 µM (inactive) | > 100 µM (inactive) | > 100 µM (inactive) | > 100 µM (inactive) | > 100 µM (inactive) | > 100 µM (inactive) | > 100 µM (inactive) | > 100 µM (inactive) | > 100 µM (inactive) | > 100 µM (inactive) | > 100 µM (inactive) | > 100 µM (inactive)
5 | N=C(N)NS(=O)(=O)c1ccc(NC(=O)c2cccc3c(NNc4ccc(S(N)(=O)=O)cc4)c4ccccc4nc23)cc1 | 55.5 µM (inactive) | 53.8 µM (inactive) | 26.4 µM (inactive) | 34.5 µM (inactive) | > 100 µM (inactive) | 45.4 µM (inactive) | 66.5 µM (inactive) | 59.7 µM (inactive) | > 100 µM (inactive) | > 100 µM (inactive) | 28.2 µM (inactive) | 51.6 µM (inactive) | 18.7 µM (inactive) | > 100 µM (inactive) | 59.4 µM (inactive) | 27.5 µM (inactive) | > 100 µM (inactive) | > 100 µM (inactive) | 66.1 µM (inactive) | > 100 µM (inactive)
6 | O=c1[nH]c(=O)n2n1C1C=CC2CC1 | > 100 µM (inactive) | > 100 µM (inactive) | > 100 µM (inactive) | > 100 µM (inactive) | > 100 µM (inactive) | > 100 µM (inactive) | > 100 µM (inactive) | > 100 µM (inactive) | > 100 µM (inactive) | > 100 µM (inactive) | > 100 µM (inactive) | > 100 µM (inactive) | > 100 µM (inactive) | > 100 µM (inactive) | > 100 µM (inactive) | > 100 µM (inactive) | > 100 µM (inactive) | > 100 µM (inactive) | > 100 µM (inactive) | > 100 µM (inactive)
7 | Cc1ccc2ccc3ccc(C)nc3c2n1 [NEOCUPROINE] | 0.429 µM (active) | 0.349 µM (active) | 0.318 µM (active) | 0.59 µM (active) | > 100 µM (inactive) | 51.5 µM (inactive) | > 100 µM (inactive) | 2.1 µM (inactive) | 4.68 µM (inactive) | > 76.2 µM (inactive) | 1.34 µM (inactive) | > 100 µM (inactive) | 1.06 µM (active) | 49.2 µM (inactive) | > 29.7 µM (inactive) | 5.62 µM (inactive) | 5.65 µM (inactive) | 7.11 µM (inactive) | > 26.9 µM (inactive) | > 100 µM (inactive)
8 | COC12C=CC(CC1)C(C)(C)C2=O (stereo not given) | > 100 µM (inactive) | > 100 µM (inactive) | > 100 µM (inactive) | > 100 µM (inactive) | > 100 µM (inactive) | > 100 µM (inactive) | > 100 µM (inactive) | > 100 µM (inactive) | > 100 µM (inactive) | > 100 µM (inactive) | > 100 µM (inactive) | > 100 µM (inactive) | > 100 µM (inactive) | > 100 µM (inactive) | > 100 µM (inactive) | > 100 µM (inactive) | > 100 µM (inactive) | > 100 µM (inactive) | > 100 µM (inactive) | > 100 µM (inactive)
9 | O=C[C@@H](CO)O[C@H](C=O)c1c[nH]c(=O)[nH]c1=O | 81.1 µM (inactive) | 84.5 µM (inactive) | 45.2 µM (inactive) | 34.9 µM (inactive) | 100 µM (inactive) | 62.8 µM (inactive) | 81.1 µM (inactive) | 89.1 µM (inactive) | 59 µM (inactive) | 88.5 µM (inactive) | 47.8 µM (inactive) | 49.4 µM (inactive) | 73.6 µM (inactive) | 101 µM (inactive) | 128 µM (inactive) | 74.1 µM (inactive) | 146 µM (inactive) | 192 µM (inactive) | 66.1 µM (inactive) | 103 µM (inactive)
10 | Cc1[nH]c2ncn(N)c(=N)c2c1Cc1ccccc1 | 80.4 µM (inactive) | > 100 µM (inactive) | 33 µM (inactive) | > 100 µM (inactive) | > 100 µM (inactive) | > 100 µM (inactive) | > 100 µM (inactive) | 30.6 µM (inactive) | 47.2 µM (inactive) | 26.1 µM (inactive) | > 100 µM (inactive) | 34.6 µM (inactive) | 4.35 µM (inactive) | 58.2 µM (inactive) | > 100 µM (inactive) | > 100 µM (inactive) | > 100 µM (inactive) | 58.3 µM (inactive) | > 100 µM (inactive) | 82 µM (inactive)
11 | NCC(=O)N1CCN(c2nc(N3CCCC3)c3nc(Cl)c(NCc4ccccc4)nc3n2)CC1 | 1.63 µM (inactive) | 1.79 µM (inactive) | 1.83 µM (inactive) | 2.49 µM (inactive) | 1.86 µM (inactive) | 2.66 µM (inactive) | 2.11 µM (inactive) | 2.48 µM (inactive) | 1.56 µM (inactive) | 1.66 µM (inactive) | 1.12 µM (inactive) | 1.85 µM (inactive) | 1.42 µM (inactive) | 1.99 µM (inactive) | 1.69 µM (inactive) | 1.85 µM (inactive) | 1.86 µM (inactive) | 1.87 µM (inactive) | 1.77 µM (inactive) | 8.26 µM (inactive)
